Results taken from patent US7217735B1, “Methods and compositions for enhancing delivery of therapeutic agents to tissues” (priority 1999, dated 2007).

Key:
[1] = test system: patient head and neck tumors; assay: Paclitaxel uptake in tumor histocultures; conditions: initial Cmedium 12,000 nM
Description: (§1) The specimens were washed with culture medium for three times and dissected into about 1 mm^3 fragments under sterile conditions. The culture medium consisted of a 1:1 mixture of MEM/DMEM for patient tumors, MEM for FaDu xenografts, and RPMI1640 for PC3 xenografts, supplemented with 9% heat-inactivated FBS, 2 mM glutamine, 0.1 mM non-essential amino acids (only for MEM/DMEM), 90:g/ml gentamicin and 90:g/ml cefotaxime sodium. Five histoculture fragments were placed on a 1 cm^2 piece of presoaked collagen gel and incubated with 4 ml culture medium in 6-well plates. After 2 to 4 days, tumor histocultures were used to study the kinetics of drug penetration.
This study was performed using head and neck tumors from human patients and the human pharynx FaDu xenograft tumors maintained in athymic mice.
(§2) At predetermined times, 100 μl of medium was taken from each well and the histocultures were removed from the plates. The histocultures were blot-dried on a filter paper and their weights were measured. One hundred 1 of medium or tumor samples were mixed with 0.5 ml of Solvable tissue/gel solubilizer, incubated at 50° C. in an oven overnight, and analyzed for total radioactivity using liquid scintillation counting. […] Drug concentration in tissue was calculated as (drug amount) divided by (tissue weight) and was expressed in molar terms.
The study design of experiments using patient tumors was dictated by the size of the specimens. On some occasions, specimens from an individual patient were only sufficient to study drug uptake and efflux at one or more but not all drug concentrations. A total of 7 head and neck tumors and 3 ovarian tumors were used. For the FaDu xenograft tumor, specimens from individual animals were sufficiently large that each tumor was used for studying uptake and efflux at all four drug concentrations.
The statistical significance of the differences among patient (head and neck and ovarian, n=6) and FaDu (n=3) tumors, at equal initial medium concentrations, were analyzed by the two-tailed unpaired Student's t-test.

[2] = test system: FaDu tumor histocultures; assay: Apoptotic fraction and cell density with or without apoptosis-inducing pretreatment, in vitro; format: cell-based, human; design: Cell density: unit not given here
Description: Drug treatment was as previously described.
Two studies were performed.

[3] = test system: patient and xenograft tumors; assay: Paclitaxel efflux from tumor histocultures, all three tumor types
Description: as §1, §2
The study design of experiments using patient tumors was dictated by the size of the specimens. […]

[4] = 10 nM [3H]paclitaxel, 4 hr, with pretreatment by 1:M nonradiolabeled paclitaxel
[5] = 10 nM [3H]paclitaxel, 4 hr, without pretreatment
[6] = 10 nM [3H]paclitaxel, 16 hr, with pretreatment by 1:M nonradiolabeled paclitaxel
[7] = 10 nM [3H]paclitaxel, 16 hr, without pretreatment
[8] = 10 nM [3H]paclitaxel, 24 hr, with pretreatment by 1:M nonradiolabeled paclitaxel
[9] = 10 nM [3H]paclitaxel, 24 hr, without pretreatment
[10] = 10 nM [3H]paclitaxel, 32 hr, with pretreatment by 1:M nonradiolabeled paclitaxel
[11] = 10 nM [3H]paclitaxel, 32 hr, without pretreatment
[12] = 10 nM [3H]paclitaxel, 48 hr, with pretreatment by 1:M nonradiolabeled paclitaxel
[13] = 10 nM [3H]paclitaxel, 48 hr, without pretreatment
[14] = 10 nM [3H]paclitaxel, 72 hr, with pretreatment by 1:M nonradiolabeled paclitaxel
[15] = 10 nM [3H]paclitaxel, 72 hr, without pretreatment
[16] = 50 nM [3H]paclitaxel, 4 hr, with pretreatment by 1:M nonradiolabeled paclitaxel
[17] = 50 nM [3H]paclitaxel, 4 hr, without pretreatment
[18] = 50 nM [3H]paclitaxel, 16 hr, with pretreatment by 1:M nonradiolabeled paclitaxel
[19] = 50 nM [3H]paclitaxel, 16 hr, without pretreatment
[20] = 50 nM [3H]paclitaxel, 24 hr, with pretreatment by 1:M nonradiolabeled paclitaxel
[21] = 50 nM [3H]paclitaxel, 24 hr, without pretreatment
[22] = 50 nM [3H]paclitaxel, 32 hr, with pretreatment by 1:M nonradiolabeled paclitaxel
[23] = 50 nM [3H]paclitaxel, 32 hr, without pretreatment
[24] = 50 nM [3H]paclitaxel, 48 hr, with pretreatment by 1:M nonradiolabeled paclitaxel
[25] = 50 nM [3H]paclitaxel, 48 hr, without pretreatment
[26] = 50 nM [3H]paclitaxel, 72 hr, with pretreatment by 1:M nonradiolabeled paclitaxel
[27] = 50 nM [3H]paclitaxel, 72 hr, without pretreatment
[28] = 50 nM x 24 hr, 24 hr after initiation of treatment
[29] = 50 nM x 24 hr, 36 hr after initiation of treatment
[30] = 600 nM x 1 hr, 23 hr later 50 nM x 12 hr, 24 hr after initiation of treatment
[31] = 600 nM x 1 hr, 23 hr later 50 nM x 12 hr, 36 hr after initiation of treatment

CC(=O)O[C@H]1C(=O)[C@@]2(C)[C@H]([C@H](OC(=O)c3ccccc3)[C@]3(O)C[C@H](OC(=O)[C@H](O)[C@@H](NC(=O)c4ccccc4)c4ccccc4)C(C)=C1C3(C)C)[C@]1(OC(C)=O)CO[C@@H]1C[C@@H]2O [paclitaxel]
Steady state Ctumor [1]: 341 ± 125 :M | Apoptotic fraction [2, 4]: 23.6 ± 1.3% | Cell density [2, 4]: 64.2 ± 3.5 | Apoptotic fraction [2, 5]: 3.93 ± 0.87% | Cell density [2, 5]: 86.3 ± 4.0 | Apoptotic fraction [2, 6]: 24.6 ± 4.8% | Cell density [2, 6]: 64.3 ± 1.8 | Apoptotic fraction [2, 7]: 4.98 ± 0.84% | Cell density [2, 7]: 80.2 ± 2.9 | Apoptotic fraction [2, 8]: 26.6 ± 2.4% | Cell density [2, 8]: 64.0 ± 5.2 | Apoptotic fraction [2, 9]: 7.32 ± 1.80% | Cell density [2, 9]: 81.6 ± 2.5 | Apoptotic fraction [2, 10]: 30.1 ± 3.4% | Cell density [2, 10]: 60.1 ± 4.2 | Apoptotic fraction [2, 11]: 6.64 ± 1.07% | Cell density [2, 11]: 79.9 ± 2.1 | Apoptotic fraction [2, 12]: 34.9 ± 5.2% | Cell density [2, 12]: 62.3 ± 3.1 | Apoptotic fraction [2, 13]: 9.18 ± 1.31% | Cell density [2, 13]: 77.8 ± 3.0 | Apoptotic fraction [2, 14]: 31.0 ± 4.4% | Cell density [2, 14]: 61.0 ± 2.2 | Apoptotic fraction [2, 15]: 11.0 ± 1.7% | Cell density [2, 15]: 82.6 ± 2.2 | Apoptotic fraction [2, 16]: 26.3 ± 5.4% | Cell density [2, 16]: 63.1 ± 4.5 | Apoptotic fraction [2, 17]: 2.74 ± 0.12% | Cell density [2, 17]: 85.8 ± 3.6 | Apoptotic fraction [2, 18]: 36.0 ± 3.9% | Cell density [2, 18]: 60.8 ± 4.9 | Apoptotic fraction [2, 19]: 7.97 ± 2.03% | Cell density [2, 19]: 83.9 ± 3.3 | Apoptotic fraction [2, 20]: 36.4 ± 2.0% | Cell density [2, 20]: 58.3 ± 1.1 | Apoptotic fraction [2, 21]: 17.0 ± 2.8% | Cell density [2, 21]: 77.0 ± 3.8 | Apoptotic fraction [2, 22]: 37.4 ± 4.5% | Cell density [2, 22]: 53.2 ± 2.1 | Apoptotic fraction [2, 23]: 19.1 ± 2.5% | Cell density [2, 23]: 71.2 ± 4.6 | Apoptotic fraction [2, 24]: 39.8 ± 3.1% | Cell density [2, 24]: 53.6 ± 2.4 | Apoptotic fraction [2, 25]: 28.3 ± 2.9% | Cell density [2, 25]: 68.8 ± 2.5 | Apoptotic fraction [2, 26]: 37.9 ± 3.4% | Cell density [2, 26]: 47.8 ± 3.2 | Apoptotic fraction [2, 27]: 27.2 ± 3.0% | Cell density [2, 27]: 61.1 ± 2.8 | Apoptotic fraction [2, 28]: 15.2% | Cell density [2, 28]: 71.3 ± 2.9 | Apoptotic fraction [2, 29]: 17.0% | Cell density [2, 29]: 72.6 ± 3.2 | Apoptotic fraction [2, 30]: 20.3 ± 4.3% | Cell density [2, 30]: 60.9 ± 1.3 | Apoptotic fraction [2, 31]: 25.4 ± 3.4% | Cell density [2, 31]: 62.4 ± 4.2 | apoptosis caused by pretreatment ([2]; 1,000 nM nonradiolabeled paclitaxel for 3 hr, at 24 hr, preliminary study): ~30% | time at which drug concentration declined to pseudo steady state level [3]: 48 h
